In patent US20250262215A1, “USE OF CYCLIN E1 STATUS AS A PREDICTIVE BIOMARKER FOR TREATING CANCER WITH WEE1 INHIBITORS” (Zeno Management, Inc., priority 2022, published 2025):

Experiments:
[1] = test system: CCNE1-amplified platinum-resistant ovarian cancer; parameters: key: CR: complete response; PR: partial response; SD: stable disease; PD: progressive disease; NE: not evaluable; NA: not available; conditions: one subject, before Azenosertib; cited from earlier work
[2] = test system: A2780 non-CCNE1-amplified (CN = 2) (Cyclin E1-low); test: Azenosertib and paclitaxel combination study, A2780 tumors; type: in vivo, mice; conditions: Azenosertib 60 mg/kg QD and/or paclitaxel 10 mg/kg, schedules of Table 2
From the text: (§1) To evaluate the effects of Azenosertib in combination with paclitaxel, mice were inoculated with A 2780 (non-CCNE1-amplified, CN=2) (FIGS. 10A and 10B) or OVCAR3 (CCNE1 amplified, CN=14) (FIG. 11A and FIG. 11B) cells. Animals were randomized and treated as summarized in Table 2 once the mean tumor volume reached a specified size.

[3] = test system: OVCAR3 CCNE1-amplified (CN = 14) (Cyclin E1-high); test: Azenosertib and paclitaxel combination study, OVCAR3 tumors; type: in vivo, mice; conditions: Azenosertib 60 mg/kg QD × 28 and/or paclitaxel 5 mg/kg 4 days on, 3 days off × 4 cycles
From the text: as §1

[4] = test system: SKOV3 cells (non-CCNE1-amplified, wild-type CCNE1 CN=2); test: SKOV3 cell line-derived xenograft (CDX), tumor growth inhibition; type: in vivo, mice; conditions: 80 mg/kg Azenosertib daily
Description: Mice were inoculated with SKOV3 cells (non-CCNE1-amplified, wild-type CCNE1 CN=2) on the right flank with the single cell suspension of 95% viable tumor cells (1×10^7) in 100 μL McCoy's 5a and Matrigel mixture (1:1 ratio) without serum for the tumor development. Animals were randomized and treated with vehicle (20% HP-β-CD) or 80 mg/kg Azenosertib daily for 21 days when the mean tumor volume reached 215 mm^3. Tumor growth inhibition (TGI) was calculated using the following equation TGI=(1−(Td−T0)/(Cd−C0))×100%. Td and Cd are the mean tumor volumes of the treated and control animals, and T0 and C0 are the mean tumor volumes of the treated and control animals at the start of the experiment. […] (FIGS. 6A and 6B).

[5] = test system: HCC1806 human triple negative breast cancer cells (CCNE1-amplified, CN=7); test: HCC1806 xenograft, tumor growth; type: in vivo, BALB/c nude mice; conditions: 80 mg/kg Azenosertib daily; after 28 days
Description: 1×10^6 HCC1806 human triple negative breast cancer cells (CCNE1-amplified, CN=7) were inoculated into the right flank of ten 6-8-week-old female BALB/c nude mice. Animals were randomized and treatment started when the mean tumor volume reached 155 mm^3. Animals were treated with vehicle (20% HP-β-CD) or 80 mg/kg Azenosertib daily and tumor volumes and body weight were measured twice weekly.

[6] = test system: SKOV3, OVCAR3 and HCC1806 tumors; test: Tolerability in tumor-bearing mice dosed orally every day (Example 3); type: in vivo, NOD/SCID mice or BALB/c nude mice
Description: NOD/SCID mice (SKOV3-Cyclin E1-low and OVCAR3-Cyclin E1-high) or BALB/c nude mice (HCC1806) bearing corresponding tumors were dosed orally every day for the time as shown in FIGS. 5A and 8A. Treatment was well-tolerated and the change in tumor volume was plotted against time of administration. Target engagement of Azenosertib (decreased pCDK1) and γH2AX were examined by IHC in tumors after 12 hrs of Azenosertib treatment in SKOV3-Cyclin E1-low and OVCAR3-Cyclin E1-high cells. Y-axis represents the sum of H-score evaluated by 3 independent pathologists (FIGS. 4B and 4C). Replication stress markers pCHK1 and γH2AX were determined by Western Blot in OVCAR3 tumor samples with or without Azenosertib treatment for 12 hrs (FIG. 4D).

[7] = test system: CCNE1-amplified platinum-resistant ovarian cancer; test: Azenosertib in one heavily pre-treated subject (Example 10); type: in vivo, human; conditions: at least 400 mg once a day, 5 days on, two off days, for 11 months
Description: The subject was selected to have CCNE1-amplified status (confirmed by Foundation assay) and was administered Azenosertib in accordance with an intermittent dosing schedule of at least 400 mg Azenosertib once a day for five consecutive days, followed by two off days for 11 months. The subject is a person who received 10 prior lines of therapy: (1) Avelumab (SD); (2) Doxorubicin Liposomal (PD); (3) Topotecan/bevacizumab (PD); (4) Cyclophosphamide/bevacizumab (unk); (5) XMT1536 (NaPi2b ADC) (PR); (6) APG115 (MDM2 inh)/Pembrolizumab (SD); (7) ABBV-155 ([…] ADC) (PD); (8) NC 318 (Siglec-15 mA B) (SD); (9) SM 08502 (CLK inhibitor) (PD); (10) NBMBMX (HDAC8 inh) (SD).

HGSOC cells = test: Growth rate inhibition (GR) by CellTiter-Glo and GR calculator; type: cell-based; conditions: for effect on growth rate (GR): relative to untreated control
From the text: To confirm whether Cyclin E1 expression levels were responsible for increased sensitivity to Azenosertib, OV90, Kuramochi and COV362 cells (low endogenous expression levels of Cyclin E1) were transduced with a lentiviral vector carrying the CCNE1 gene or with an empty vector control. Stable OV90, Kuramochi and COV362 cell lines were established by puromycin selection. Cyclin E1 overexpression in the stable OV90 cell line compared to empty vector control cells was confirmed by Western blotting (FIG. 1C). […] Sensitization of HGSOC cell lines by overexpression of Cyclin E1 to Azenosertib was assessed by plotting the growth-rate (GR) inhibition in FIG. 1D. It was observed that Cyclin E1 overexpression sensitized HGSOC cell lines to Azenosertib by further decreasing growth rate and cell viability compared to control empty vector cell lines (FIG. 1D). GR50 and IC50 values of Azenosertib were determined by CellTiter-Glo (CTG) assay and the GR calculator.
HGSOC cells were assessed for growth rate inhibition (GR) in the presence of Azenosertib (relative to an untreated control). GR value is independent of cell division rate and was determined as described in Hafner et al. (Curr. Protoc. Chem. Biol. 9, 96-116 (2017)). HGSOC cells with high Cyclin E1 protein expression were amongst the most sensitive to Azenosertib. […] (FIG. 2). […] In Cyclin E1-low ovarian cancer cell lines, overexpression of Cyclin E1 by lentivirus increased sensitivity to Azenosertib.

[8] = test system: OVCAR-3 cells (CCNE1-amplified, CN=14); test: OVCAR-3 xenograft, tumor growth inhibition; type: in vivo, NOD/SCID mice; conditions: 80 mg/kg Azenosertib daily; after 28 days
Description: 6-8 weeks old female NOD/SCID mice were inoculated with OVCAR-3 cells (CCNE1-amplified, CN=14) into the right flank. Animals were randomized and treated with […] (20% HP-β-CD) or 80 mg/kg Azenosertib daily once the mean tumor volume reached 111 mm^3. Tumor volumes and body weight were measured twice weekly. […] Reduction in tumor growth was also observed in animals treated with 40 mg/kg Azenosertib daily, 60 mg/kg Azenosertib daily, 80 mg/kg Azenosertib daily. (FIGS. 8C and 8D).

[9] = test system: OVCAR8 (non=CCNE1-amplified) CDX; test: OVCAR8 CDX model, tumor growth inhibition; type: in vivo, mice; conditions: 80 mg/kg Azenosertib daily for 39 days

## CN1CCN(c2cc(C(=O)Nc3cc4cc(-c5cnn(C)c5)ccc4cn3)ccn2)CC1 [SM 08502, reference compound]
[1]
  response to prior line of therapy: PD

## CC(=O)O[C@H]1C(=O)[C@@]2(C)[C@H]([C@H](OC(=O)c3ccccc3)[C@]3(O)C[C@H](OC(=O)[C@H](O)[C@@H](NC(=O)c4ccccc4)c4ccccc4)C(C)=C1C3(C)C)[C@]1(OC(C)=O)CO[C@@H]1C[C@@H]2O [Paclitaxel, paclitaxel, reference compound]
[2]
  Tumor Growth Inhibition: 46%
[3]
  Tumor Growth Inhibition: 74%

## C=CCn1c(=O)c2cnc(Nc3ccc(N4CCN(C)CC4)cc3)nc2n1-c1ccc2c(n1)[C@@](O)(CC)CC2 [Azenosertib]
[4]
  average tumor growth inhibition TGI(80 mpk, Day 28): 51.5%
[2]
  Tumor Growth Inhibition: 34%
[5]
  reduced tumor growth vs vehicle: 63.5%
[6]
  tolerability of treatment: well-tolerated
[7]
  durable cPR: −71%
[3]
  Tumor Growth Inhibition: 68%
HGSOC cells; COV362, JHOMI, OAW28, OVCAR3, CAOV3, and OVCAR4 cells
  effect on growth rate (GR): cytotoxic effect
HGSOC cells; ES2 and TYK-nu cells
  effect on growth rate (GR): cytotoxic effect
HGSOC cells; OV90 and Kuramochi cells
  effect on growth rate (GR): inhibitory effect
HGSOC cells; ovarian cancer cell lines overexpressing Cyclin E1 protein (Cyclin E1-high)
  GRmax: < −0.5
[8]
  reduced tumor growth TGI(80 mpk, Day 28): 88%
[9]
  average tumor growth inhibition TGI(80 mpk, Day 28): 52.8%

## Avelumab: prior line of therapy of the subject [reference compound]
[1]
  response to prior line of therapy: SD

B1: ABBV-155 (conjugate, chains of the INN, looked up)
VH: EVQLQESGPGLVKPSETLSLTCAVTGYSITSGYSWHWIRQFPGNGLEWMGYIHSSGSTNYNPSLKSRISISRDTSKNQFFLKLSSVTAADTAVYYCAGYDDYFEYWGQGTTVTVSS
VL: DIQMTQSPSSLSASVGDRVTITCKASQNVGFNVAWYQQKPGKSPKALIYSASYRYSGVPSRFSGSGSGTDFTLTISSLQPEDFAEYFCQQYNWYPFTFGQGTKLEIK
modifications: clezutoclax payload
[1]
  response to prior line of therapy: PD

B2: XMT1536 (conjugate, chains of the INN, looked up)
VH: QVQLVQSGAEVVKPGASVKMSCKASGYTFTGYNIHWVKQAPGQGLEWIGAIYPGNGDTSYKQKFRGRATLTADTSTSTVYMELSSLRSEDSAVYYCARGETARATFAYWGQGTLVTVSS
VL: DIQMTQSPSSLSASVGDRVTITCSASQDIGNFLNWYQQKPGKTVKVLIYYTSSLYSGVPSRFSGSGSGTDYTLTISSLQPEDFATYYCQQYSKLPLTFGQGTKLELK
modifications: rilsodotin (auristatin) payload
[1]
  response to prior line of therapy: PR
